In article PMC7046148 (Scientific Reports, 2020):

Legend:
Gibco hiPSCs = test: qRT-PCR characterization of LPM differentiation, Gibco hiPSCs in 2D; assay type: cell-based, human; conditions: 20 µM thalidomide, 2 d in APEL2+GSKi; for effect on marker gene expression during LPM differentiation (words): 2D
Experimental: The TaqMan hPSC Scorecard Assay (Thermo Fisher) was used to assess the pluripotency of cultured Gibco hiPSCs and the XCL-1 hiPSC clones as described. The assay outputs scores for self-renewal, ectoderm, endoderm, and mesoderm genes.
Gibco hiPSCs were seeded in small clumps at ~10% confluence on Matrigel-coated dishes and were cultured for 1 d in mTeSR-1. On the following day after seeding, the medium was switched to APEL2 basal medium (Stem Cell Technologies) supplemented with 5 µM CHIR99021 (Stem Cell Technologies) (hereafter referred to as APEL2 + GSKi). hiPSCs were cultured for the described duration in APEL2 + GSKi and were characterized by qRT-PCR and immunofluorescence. Briefly, RNA was extracted using buffer RLT supplemented with 1% β-mercaptoethanol and purified from hiPSCs using RNeasy kit (Qiagen) with optional DNase step. Reverse transcription was carried out using the high capacity cDNA reverse transcription kit (ThermoFisher). cDNA was characterized using Qubit HS dsDNA kit (Invitrogen), and qRT-PCR was carried out using TaqMan primer/probes (Thermo Fisher) and fast advanced master mix (Thermo Fisher) per manufacturer’s instructions on either the Viia7 or QuantStudio 5 (Thermo Fisher). Assay results were normalized to ACTB housekeeping control and the undifferentiated control (day 0) via the 2^−ΔΔCT method. The capacity of Gibco hiPSCs and XCL-1 hiPSCs to undergo LPM differentiation was also assessed using qRT-PCR for markers of pluripotency (NANOG, POU5F1), primitive streak (T, SOX17), LPM (FOXF1, GATA4), and limb mesenchyme (PITX1, TBX5).
Data represent the mean ± log2 fold change, normalized to the ACTB control and the DMSO control via the 2^−ΔΔCT method, relative to DMSO control from 4 independent experiments. Asterisks denote statistical significance via 2-tailed Student’s t-test relative to a nominal mean log2 fold change of ‘0’ (α = 0.05). PS = primitive streak; LPM = lateral plate mesoderm.
Legend for Supplementary Tables 1-3
Supplementary tables 1-3 contain qRT-PCR data obtained using the Taqman hPSC Scorecard Assay (Thermo Fisher).Lysates of Gibco and XCL-1 hiPSCs were purified to RNA using RNeasy procedure (Qiagen). Reverse transcription was performed using the cDNA high capacity reverse transcription kit(Invitrogen). dsDNA content was calculated using Qubit dsDNA HS kit(Invitrogen). cDNA was loaded into hPSC pluripotency panel pre-loaded 384 well plates, and plates were run on Viia7 using standard curve method. The hPSC scorecard analysis software (Thermo Fisher) was used to calculate the relative gene expression scores forself-renewal genes, ectoderm genes, endoderm genes, and mesoderm genes. Scores are provided from pooled lysates from replicate wells ofa single experiment. Cells were cultured as described herein. […]

[1] = tested on: mouse embryonic stem cells; conditions: cited from earlier work
XCL-1 hiPSC CRBN Mock = test: cells; assay type: cell-based; conditions: Homo sapiens, 72 h; XCL-1 CRBN Mock; 3 d differentiation; read-out: IC50 (±SEM) in SOX17 differentiation assay
Experimental: (§1) The assay was carried out as previously described with continuous dosing of chemical for 3 total days of differentiation. SOX17 staining and DAPI counter-staining were carried out as described, and assays were imaged via high content imaging. […]
(§2) Supplementary Figure 7. Dose-response characterization of the influence […]
(§3) of XCL-1 clones. High content imaging analysis of XCL-1 hiPSC clones that were differentiated for 3 days in the presence of compound and subsequently stained for SOX17 and counter-stained with DAPI. Untreated DMSO control is omitted. Data represent the mean +/- SEM %SOX17 cells
(§4) (relative to control) from 4 independent experiments. Nonlinear regression […]
(§5) variable slope plotting tool in GraphPad Prism. A-C: Dose-response […]
(§6) in cereblon mock (hollow circles) or CRBN KO/KI (red filled circles) clones. D- […]

XCL-1 hiPSC CRBN KO/KI = test: cells; assay type: cell-based; conditions: Homo sapiens, 72 h; XCL-1 CRBN KO/KI; 3 d differentiation; read-out: IC50 (±SEM) in SOX17 differentiation assay
Experimental: as §1, §2, §3, §4, §5, §6

XCL-1 hiPSC SALL4^G416A = test: cells; assay type: cell-based; conditions: Homo sapiens, 72 h; XCL-1 SALL4^G416A; 3 d differentiation; read-out: IC50 (±SEM) in SOX17 differentiation assay
Experimental: as §1, §2, §3, §4, §5, §6

XCL-1 hiPSC SALL4 Mock = test: cells; assay type: cell-based; conditions: Homo sapiens, 72 h; XCL-1 SALL4 Mock; 3 d differentiation; read-out: IC50 (±SEM) in SOX17 differentiation assay
Experimental: as §1, §2, §3, §4, §5, §6

IC50 (XCL-1 hiPSC CRBN KO/KI): > 50 µM
IC50 (XCL-1 hiPSC SALL4^G416A): > 50 µM
Compound: O=C1CCC(N2C(=O)c3ccccc3C2=O)C(=O)N1 (stereo not drawn) [Thalidomide, thalidomide]
effect on marker gene expression during LPM differentiation (words) (Gibco hiPSCs): did not affect expression of the other measured markers
effect on marker gene expression during LPM differentiation (words) (Gibco hiPSCs; listed as thalidomide): significantly reduced the expression of both FOXF1 and SOX17
reduction of FOXF1 expression (Gibco hiPSCs; hPSC Scorecard panel): ~ 60%
reduction of SOX17 expression (Gibco hiPSCs; hPSC Scorecard panel): > 95%
concentration for nonspecific toxicity in the mEST [1]: above 400 µM
IC50 (XCL-1 hiPSC CRBN Mock): 1.9 ± 2.3 µM
IC50 (XCL-1 hiPSC SALL4 Mock): 1.8 ± 2.6 µM
